{"source": "patent US7976841B2", "about": "“Anti TfR antibody” (Institut National de la Sante et de la Recherche, priority 2004, dated 2011)", "key": {"[1]": {"test_system": "tumor cells derived from ATL acute patients", "test": "Apoptosis assay (annexin V-FITC/PI, DIOC), acute ATL cells", "type": "cell-based, human", "protocol": "Two million of PBMC from HTLV-1 patients were treated for 96 h with IL-2 and PHA in the presence or absence of A24 (10 μg/ml), 30.9 (10 μg/ml) or of the apoptosis-inducing agent VP16 (100 ng/ml). Cells were then washed with ice-cold PBS and incubated with a combination of annexin V-FITC and propidium iodide (PI) (Beckman-Coulter, Marseilles, France), according to the manufacturer recommendations. Alternatively, the apoptosis was evaluated through mitochondrial membrane depolarization with the DIOC staining (Molecular Probes) as described earlier (ZERMATI et al., J Exp Med., 193, 247-254, 2001).\nFe deprivation induces a variety of consequences, such as the reduction of cell proliferation and the activation of programmed cell death (HAQ et al., Exp Hematol., 23, 428-432, 1995), a phenomenon associated with phosphatidylserine exposure and mitochondrial membrane depolarization. […] The results are shown of FIGS. 7 A and 7B.\nComparative effect of A24, 30.9 and VP 16 on the induction of programmed cell death in selected cells. Cells were activated or not with PHA and IL-2 and incubated in the presence of 30.9, A24 and VP16. Apoptotic and necrotic cells were followed by flow cytometry using an annexin-V-FITC/PI kit. […] Data represents one out of three different experiments."}, "CD20": {"target": "T1, CD20 (Homo sapiens, UniProt P11836)", "T1 construct": "target receptors TfR and CD20 at the surface of a MCL cell line EBV+ and a MCL cell line EBV^−; endogenous in cells; host or cells: MCL-derived B-cell lines (EBV+ and EBV-)", "T1 sequence (P11836 1-297)": "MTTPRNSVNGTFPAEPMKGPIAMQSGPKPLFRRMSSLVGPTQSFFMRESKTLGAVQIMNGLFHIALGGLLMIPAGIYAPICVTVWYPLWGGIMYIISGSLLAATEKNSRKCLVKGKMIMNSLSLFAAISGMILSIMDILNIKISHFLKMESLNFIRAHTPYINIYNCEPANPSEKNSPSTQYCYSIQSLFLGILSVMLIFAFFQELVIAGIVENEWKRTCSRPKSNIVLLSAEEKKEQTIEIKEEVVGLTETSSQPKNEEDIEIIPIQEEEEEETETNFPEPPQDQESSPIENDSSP", "test": "CD20 expression at the surface of MCL cell lines, flow cytometry", "type": "cell-based", "details": "Rituximab 10 μg/ml, 30 minutes to 72 hours", "excerpt": "In a first time, we checked by flow cytometry the rate of expression of TfR and CD20 on […] B-cells lines (EBV+ and EBV^−) derived from MCL5. using an anti-CD71-PE antibody (Beckman-Coulter) and an anti-CD20-PE antibody (Becton Dickinson). The results are shown on FIGS. 8 A and B. The gray histograms respectively represent the rate of expression of the CD71 (A) and of the CD20 (B) at the surface of MCL cells EBV+ (a,b,c,e,f,g) or EBV^− (d). This rate is specified on each histogram after substraction of the background noise of the staining.\nThe results are shown on FIGS. 9A (A24) and 9B (Rituximab)."}, "EBV+ and EBV− MCL lines": {"test_system": "EBV+ and EBV− MCL lines", "test": "MCL cell proliferation, radioactive thymidine incorporation", "type": "cell-based, human", "details": "72 hours, […] to 20 μg/ml", "excerpt": "The cellular proliferation is expressed as a percent of the proliferation of untreated control cells. The results are shown on FIG. 10."}, "[2]": {"test_system": "resting T cells co-cultured with dendritic cells", "test": "Allogeneic Mixed Leukocyte Reaction (MLR), DC-induced T cell proliferation", "type": "cell-based, human", "details": "6 days of culture", "excerpt": "Peripheral blood mononuclear cells (PBMC) were isolated as described earlier by the standard Ficoll-Paque method (Amersham Life Science, Buckinghamshire, U.K.) (BAZARBACHI et al, Blood., 93, 278-283, 1999). The healthy volunteers and the 4 acute and 3 chronic ATL patients (classified following Shirono criteria) (SHIRONO et al., Leukemia., 8, 1834-1837, 1994) had all given their informed consent. ATL tumor cells represented between 60-90% of the T cell population. Each cell type was freshly cultured in conditioned RPMI-1640 medium supplemented with 10% of fetal calf serum (FCS, Gibco BRL) and a mixture of interleukin-2 (20 U/ml IL-2) and phytohemagglutinin (4 μg/ml PHA). Mixed leukocyte reaction (MLR) was performed as described earlier (TORDJMAN et al., Nat Immunol., 3, 477-482, 2002). CIB tropical spastic paraparesis (HAM/TSP) cell line was cultured in RPMI-1640 medium supplemented with 10% of FCS.\nTo test if A24 could also block physiologically activated T cell proliferation, we examined the effect of A24 in allogeneic Mixed Leukocyte Reaction (MLR). DC-induced allogenic T cell proliferation was evaluated after 6 days of culture in the presence of A24, control antibody (30.9) or arsenic trioxide (Ars). The results are shown in FIG. 1 B. Data represents means SD of one out of three separate experiments. […]"}, "[3]": {"test_system": "HTLV-1 infected T cell clones", "test": "Emergence of HTLV-1 infected T cell clones, 2-week culture", "type": "cell-based, human", "details": "chronic ATL PBMC, single dose on first day, 2 weeks", "protocol": "HTLV-1 infected cells can proliferate in vitro, but the clones that proliferate in culture are generally not the same as those that proliferate in the patient. To verify if A24 could inhibit the emergence of HTLV-1 infected T cell clones, we cultured cells freshly isolated from patients and from healthy individuals in the presence or absence of A24. PBMC from HTLV-1 infected patients with a chronic ATL form were plated in culture wells with the 30.9, A24 or Ars for 2 weeks. Emergence of HTLV-1 clones was evaluated by [3H] thymidine incorporation. After 2 weeks of culture, the appearance of proliferating cells was assessed by [3H] thymidine incorporation."}, "[4]": {"test_system": "peripheral blood leukocytes (PBMC)", "test": "Proliferation of PHA/IL-2-activated PBMC from healthy individuals, [3H]-thymidine incorporation", "type": "cell-based, human", "details": "PHA/IL-2, 72 h", "protocol": "(§1) PBMC were resuspended in RPMI-1640 with 10% FCS, and added in triplicates at the concentration of 10^5 cells/well in 96-well tissue culture plates (Falcon, Oxnard, Calif.). Proliferation was measured over 18 h, using pulses with 1 μCi/well of [^3H]-thymidine (Amersham Life Science, Buckinghamshire, U.K.). Cells were then harvested with a 96-well Harvester (Pharmacia, St. Quentin, France), collected on filters (Pharmacia) and the incorporation of [^3H] thymidine was measured with β-plate microscintillation counter (LKB, Pharmacia).\nTo investigate the activity of A24 on peripheral blood leukocytes (PBMC) proliferation, cells were activated with PHA/IL-2 and incubated with different concentrations of A24 (0 to 50 μg/ml) or control antibody (30.9) (0 to 50 μg/ml) for 72 h before [^3H]-thymidine incorporation.\n(§2) TfR expression is essential for the proliferation of both normal and malignant T cells. While TfR expression in normal T cells is tightly coupled to interleukin-2 receptor expression, TfR expression in malignant cells is usually constitutive. It was previously shown that the anti-IL-2Rα can efficiently block the ex vivo proliferation of cells derived from chronic ATL patients. […] Proliferation of these cells was then measured by [^3H] thymidine incorporation. […]"}, "[5]": {"test_system": "PBMC from HTLV-I infected patients with acute or chronic ATL", "test": "Proliferation of PBMC from ATL patients, PHA/IL-2, [3H] thymidine incorporation", "type": "cell-based, human", "details": "PHA/IL-2, 72 h", "protocol": "as §1\nPBMC from healthy individuals (a) and HTLV-I infected patients with an acute ATL (b) or a chronic ATL (c) were plated in culture wells with A24 or a control antibody (30.9) in the presence of PHA/IL-2, for 72 h before [3H] thymidine incorporation. The results are shown on FIG. 2C.\nas §2"}}}
{"molecule": "COc1cc([C@@H]2c3cc4c(cc3[C@@H](O[C@@H]3O[C@@H]5CO[C@@H](C)O[C@H]5[C@H](O)[C@H]3O)[C@H]3COC(=O)[C@H]23)OCO4)cc(OC)c1O", "note": "[VP 16]", "values": [{"measurement": "annexin-V staining", "setting": "[1]; A24 10 μg/ml, VP16 100 ng/ml, 96 h", "result": "a large population that stained brightly with annexin-V appeared"}, {"measurement": "DIOC staining (mitochondrial depolarization)", "setting": "[1]; activated leukocytes from ATL acute patient", "result": "drastic reduction"}]}
{"molecule": "Rituximab: anti-CD20 antibody manufactured by Genentech", "values": [{"measurement": "expression of the CD20", "setting": "CD20", "result": "does not induce notable reduction"}, {"measurement": "inhibition of MCL proliferation", "setting": "EBV+ and EBV− MCL lines", "result": "≤ 20", "unit": "%"}]}
{"molecule": "arsenic trioxide", "values": [{"measurement": "effect on T cell proliferation", "setting": "[2]", "result": "block T cell proliferation"}, {"measurement": "effect on proliferation of HTLV-1 infected T cell clones", "setting": "[3]", "result": "more efficient than A24"}]}
{"molecule": "anti-IL-2Rα: anti-IL-2Rα monoclonal antibody (Zenapax from Hoffmann-La Roche) (antibody, chains of the INN, looked up, V domains shown) VH: QVQLVQSGAEVKKPGSSVKVSCKASGYTFTSYRMHWVRQAPGQGLEWIGYINPSTGYTEYNQKFKDKATITADESTNTAYMELSSLRSEDTAVYYCARGGGVFDYWGQGTLVTVSS VL: DIQMTQSPSTLSASVGDRVTITCSASSSISYMHWYQQKPGKAPKLLIYTTSNLASGVPARFSGSGSGTEFTLTISSLQPDDFATYYCHQRSTYPLTFGQGTKVEVK", "values": [{"measurement": "effect on PHA/IL-2-induced cell proliferation", "setting": "[4]", "result": "significantly inhibited"}, {"measurement": "effect on cell proliferation, acute ATL", "setting": "[5]; acute ATL", "result": "did not block"}, {"measurement": "effect on cell proliferation, chronic ATL", "setting": "[5]; chronic ATL", "result": "significantly inhibited"}]}
